The text below walks through data of PubChem BioAssay AID977614 (Broad Institute, 2014).

Activity calls are given as the source filed them.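 How the source made its calls: active means parasite count per well reduced by over 3 SD from the mean, with host cell number above 80% of untreated; inactive means the rest.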 Where only a bound is given, the exact number is not on record here.

For this experiment, the system named is L. donovani amastigotes in THP-1 macrophages, DAPI imaging, 72 h. As to the kind of experiment: antileishmanial activity in infected macrophages – imaging, THP-1 host macrophages, single concentration (AID 977614).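 Further: signal is the parasite per host cell ratio from DAPI stained kinetoplasts and nuclei.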

What is called AC50 is the concentration giving half of the maximal activity seen. As for `C[C@H](CO)N1C[C@H](C)[C@@H](CN(C)C(=O)Nc2ccc(-c3cccs3)cc2)OCc2cnnn2CCCC1=O`, the AC50 is > 10 µM (inactive).

On to `O=C(C1CCCCC1)N1[C@H](CO)[C@H]2c3ccccc3N(S(=O)(=O)c3ccccc3)C[C@H]21`, for which the AC50 is > 10 µM (inactive).

Regarding `CN(C)CC(=O)N1C[C@H]2[C@@H](c3ccccc31)[C@@H](CO)N2C(=O)c1ccccn1`, the AC50 was > 10 µM (inactive).

`C[C@@H]1CN([C@@H](C)CO)C(=O)CCCn2nncc2CO[C@@H]1CN(C)S(=O)(=O)c1cn(C)cn1`: the AC50 is > 10 µM (inactive).

In the case of `CCS(=O)(=O)N(C)C[C@@H]1N[C@H](CO)[C@@H]1c1ccc(C2=CCCCC2)cc1`, the AC50 was > 10 µM (inactive).

Regarding `CN(C[C@@H]1N[C@H](CO)[C@@H]1c1ccc(-c2cccc(F)c2)cc1)C(=O)CC1CC1`, the AC50 was > 10 µM (inactive).

Regarding `CCCNC(=O)N1C[C@H]2[C@@H](c3ccccc31)[C@H](CO)N2Cc1cccc(OC)c1`, the AC50 was > 10 µM (inactive).

Regarding `COc1ccc(NC(=O)N2C[C@@H]3[C@H](c4ccccc42)[C@@H](CO)N3Cc2ccccn2)cc1`, the AC50 is > 10 µM (inactive).

Take `C[C@@H]1CN([C@H](C)CO)C(=O)CCCn2nncc2CO[C@H]1CN(C)C(=O)c1cc(-c2ccccc2)on1`: the AC50 is > 10 µM (inactive).

For `CN1[C@H](CO)[C@H]2c3ccccc3NC[C@H]21`, the AC50 is > 10 µM (inactive).

As for `Cc1noc(C)c1NC(=O)N(C)C[C@H]1OCc2cn(nn2)CCCC(=O)N([C@H](C)CO)C[C@@H]1C`, the AC50 was > 10 µM (inactive).

On to `C[C@@H]1CN([C@H](C)CO)C(=O)CCCn2nncc2CO[C@H]1CN(C)C(=O)Nc1ccc(-c2cccs2)cc1`, for which the AC50 is > 10 µM (inactive).

With `C[C@H]1CN([C@@H](C)CO)C(=O)CCCn2nncc2CO[C@H]1CN(C)C(=O)Nc1cccc(Oc2ccccn2)c1`, the AC50 was > 10 µM (inactive).

For the compound `CN(C[C@H]1[C@H](c2ccccc2)[C@@H](CO)N1Cc1ccccn1)S(C)(=O)=O`, the AC50 was > 10 µM (inactive).

As for `CCC(=O)N1[C@H](CN(CC)C(=O)c2cccc(F)c2)[C@@H](c2ccccc2)[C@@H]1CO`, the AC50 is > 10 µM (inactive).

Turning to `O=C(Nc1ccc(Cl)cc1)N1C[C@@H]2[C@H](c3ccccc31)[C@@H](CO)N2CC1CCCCC1`, the AC50 is > 10 µM (inactive).

Turning to `CCC(=O)N1[C@@H]2CN(C(=O)Nc3ccc(Cl)cc3)c3ccccc3[C@@H]2[C@@H]1CO`, the AC50 is > 10 µM (inactive).

In the case of `C[C@H](CO)N1C[C@H](C)[C@@H](CN(C)S(=O)(=O)c2ccc(Oc3ccccc3)nc2)OCc2cnnn2CCCC1=O`, the AC50 is > 10 µM (inactive).

`C[C@H](CO)N1C[C@H](C)[C@H](CN(C)C(=O)Nc2cccc3ccccc23)OCc2cn(nn2)CCCC1=O`: the AC50 was > 10 µM (inactive).

Take `C[C@H](CO)N1C[C@H](C)[C@@H](CN(C)C(=O)Oc2ccc3ccccc3c2)OCc2cn(nn2)CCCC1=O`: the AC50 was > 10 µM (inactive).

As to `C[C@H](CO)N1C[C@H](C)[C@H](CN(C)C(=O)c2ccc(N3CCN(C)CC3)cc2)OCc2cn(nn2)CCCC1=O`, the AC50 was > 10 µM (inactive).

Turning to `C[C@H]1CN([C@@H](C)CO)C(=O)CCCn2nncc2CO[C@H]1CN(C)CC1CCCCC1`, the AC50 was > 10 µM (inactive).

For the compound `CC(=O)N1[C@H](CO)[C@@H](c2ccccc2)[C@H]1CN(C)S(=O)(=O)c1ccccc1`, the AC50 is > 10 µM (inactive).

On to `CC(=O)N1[C@@H](CO)[C@@H](c2ccccc2)[C@@H]1CN(C)S(=O)(=O)c1ccccc1`, for which the AC50 was > 10 µM (inactive).

`C[C@H]1CN([C@@H](C)CO)C(=O)CCCn2nncc2CO[C@H]1CN(C)S(=O)(=O)c1ccccc1C#N`: the AC50 was > 10 µM (inactive).

Consider `C[C@@H]1CN([C@@H](C)CO)C(=O)CCCn2nncc2CO[C@@H]1CN(C)C(=O)c1cc(-c2ccccc2)on1`, for which the AC50 is > 10 µM (inactive).

On to `CNC[C@@H]1OCc2cn(nn2)CCCC(=O)N([C@@H](C)CO)C[C@@H]1C`, for which the AC50 was > 10 µM (inactive).
